Test results published in the supplement of paper PMC10307832.

What was measured:
Assay in all cases: relative viability (nuclei count vs DMSO), 5 days (fraction); higher = more cells survive
Veliparib + Bortezomib = compound: C[C@]1(c2nc3c(C(N)=O)cccc3[nH]2)CCCN1 [Veliparib] + CC(C)C[C@H](NC(=O)[C@H](Cc1ccccc1)NC(=O)c1cnccn1)B(O)O [Bortezomib] (partner 0.002 µM)
Procedure, shortened: (§1)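 Nuclei were stained with Hoechst during a one-step fixation (final 0.05% Triton X-100, 1% formaldehyde, 1 ug/ml Hoechst) carried out 5 days after dosing, then counted on 4× images. The cells, lung cancer lines in 1536-well plates, had been dosed by pin tool the day after seeding with one drug alone or a fixed anchor-drug dose plus five library-drug doses (not always all listed) in √10 steps. Relative viability is the nuclei count in treated wells divided by that in vehicle wells, and each value is the median of duplicate plates.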

[1] = compound: COC1=CC=C(C=C1)CN2C=CC3=C2C=C(C=C3)C(=O)NO + C[C@@H](Oc1cc(-c2cnn(C3CCNCC3)c2)cnc1N)c1c(Cl)ccc(F)c1Cl [Crizotinib] (partner 1 µM)
Procedure, shortened: as §1

[2] = compound: COC1=CC=C(C=C1)CN2C=CC3=C2C=C(C=C3)C(=O)NO + CC(=O)c1c(C)c2cnc(Nc3ccc(N4CCNCC4)cn3)nc2n(C2CCCC2)c1=O [Palbociclib] (partner 0.5 µM)
Procedure, shortened: as §1

Veliparib + Vorinostat = compound: C[C@]1(c2nc3c(C(N)=O)cccc3[nH]2)CCCN1 [Veliparib] + O=C(CCCCCCC(=O)Nc1ccccc1)NO [Vorinostat] (partner 1 µM)
Procedure, shortened: as §1

Cell Line: NCI-H1299
- relative viability (Veliparib + Bortezomib; first compound 0.02 µM): 1.04
- relative viability (Veliparib + Bortezomib; first compound 0.06325 µM): 0.979
- relative viability (Veliparib + Bortezomib; first compound 0.2 µM): 1.02
- relative viability (Veliparib + Bortezomib; first compound 0.6325 µM): 1.03
- relative viability (Veliparib + Bortezomib; first compound 2 µM): 1
- relative viability ([1]; first compound 0.08 µM): 0.947
- relative viability ([1]; first compound 0.253 µM): 0.978
- relative viability ([1]; first compound 0.8 µM): 0.967
- relative viability ([1]; first compound 2.53 µM): 0.943
- relative viability ([1]; first compound 8 µM): 0.959

Cell Line: NCI-H1395
- relative viability ([2]; first compound 0.253 µM): 0.632
- relative viability ([2]; first compound 0.8 µM): 0.709
- relative viability ([2]; first compound 2.53 µM): 0.6
- relative viability ([2]; first compound 8 µM): 0.563
- relative viability (Veliparib + Vorinostat; first compound 0.02 µM): 0.432
- relative viability (Veliparib + Vorinostat; first compound 0.06325 µM): 0.485
- relative viability (Veliparib + Vorinostat; first compound 0.2 µM): 0.648
- relative viability (Veliparib + Vorinostat; first compound 0.6325 µM): 0.638
- relative viability (Veliparib + Vorinostat; first compound 2 µM): 0.499

Cell Line: NCI-H1563
- relative viability (Veliparib + Bortezomib; first compound 0.02 µM): 0.645
- relative viability (Veliparib + Bortezomib; first compound 0.06325 µM): 0.803
- relative viability (Veliparib + Bortezomib; first compound 0.2 µM): 0.859
- relative viability (Veliparib + Bortezomib; first compound 0.6325 µM): 0.792
- relative viability (Veliparib + Bortezomib; first compound 2 µM): 0.799
- relative viability ([1]; first compound 0.08 µM): 0.718
- relative viability ([1]; first compound 0.253 µM): 0.847
- relative viability ([1]; first compound 0.8 µM): 0.957
- relative viability ([1]; first compound 2.53 µM): 0.921
- relative viability ([1]; first compound 8 µM): 0.943

Cell Line: NCI-H1648
- relative viability ([2]; first compound 0.08 µM): 0.254
- relative viability ([2]; first compound 0.253 µM): 0.309
- relative viability ([2]; first compound 0.8 µM): 0.298
- relative viability ([2]; first compound 2.53 µM): 0.277
- relative viability ([2]; first compound 8 µM): 0.269
- relative viability (Veliparib + Vorinostat; first compound 0.02 µM): 0.481
- relative viability (Veliparib + Vorinostat; first compound 0.6325 µM): 0.572
- relative viability (Veliparib + Vorinostat; first compound 2 µM): 0.424

Cell Line: NCI-H1703
- relative viability (Veliparib + Bortezomib; first compound 0.02 µM): 0.366
- relative viability (Veliparib + Bortezomib; first compound 0.06325 µM): 0.308
- relative viability (Veliparib + Bortezomib; first compound 0.2 µM): 0.408
- relative viability (Veliparib + Bortezomib; first compound 0.6325 µM): 0.354
- relative viability (Veliparib + Bortezomib; first compound 2 µM): 0.426
- relative viability ([1]; first compound 0.08 µM): 0.158
- relative viability ([1]; first compound 0.253 µM): 0.552
- relative viability ([1]; first compound 0.8 µM): 0.619
- relative viability ([1]; first compound 2.53 µM): 0.637
- relative viability ([1]; first compound 8 µM): 0.72

Cell Line: NCI-H1792
- relative viability (Veliparib + Bortezomib; first compound 0.02 µM): 0.924
- relative viability (Veliparib + Bortezomib; first compound 0.06325 µM): 0.858
- relative viability (Veliparib + Bortezomib; first compound 0.2 µM): 0.981
- relative viability (Veliparib + Bortezomib; first compound 0.6325 µM): 0.916
- relative viability (Veliparib + Bortezomib; first compound 2 µM): 0.897
- relative viability ([1]; first compound 0.08 µM): 0.969
- relative viability ([1]; first compound 0.253 µM): 0.905
- relative viability ([1]; first compound 0.8 µM): 1.01
- relative viability ([1]; first compound 2.53 µM): 0.918
- relative viability ([1]; first compound 8 µM): 0.697
- relative viability ([2]; first compound 0.08 µM): 0.616
- relative viability ([2]; first compound 0.253 µM): 0.726
- relative viability ([2]; first compound 0.8 µM): 0.626
- relative viability ([2]; first compound 2.53 µM): 0.634
- relative viability ([2]; first compound 8 µM): 0.637

Cell Line: NCI-H1793
- relative viability ([2]; first compound 0.253 µM): 0.344
- relative viability ([2]; first compound 0.8 µM): 0.324
- relative viability ([2]; first compound 2.53 µM): 0.32
- relative viability ([2]; first compound 8 µM): 0.248
- relative viability (Veliparib + Vorinostat; first compound 0.02 µM): 0.654
- relative viability (Veliparib + Vorinostat; first compound 0.06325 µM): 0.697
- relative viability (Veliparib + Vorinostat; first compound 0.2 µM): 0.58
- relative viability (Veliparib + Vorinostat; first compound 0.6325 µM): 0.807
- relative viability (Veliparib + Vorinostat; first compound 2 µM): 0.722

Cell Line: NCI-H1944
- relative viability ([1]; first compound 0.253 µM): 1.18
- relative viability ([1]; first compound 0.8 µM): 1.1
- relative viability ([1]; first compound 2.53 µM): 1.09
- relative viability ([1]; first compound 8 µM): 1.08
- relative viability ([2]; first compound 0.253 µM): 0.36
- relative viability ([2]; first compound 0.8 µM): 0.315
- relative viability ([2]; first compound 2.53 µM): 0.338
- relative viability ([2]; first compound 8 µM): 0.308
- relative viability (Veliparib + Vorinostat; first compound 0.02 µM): 0.491
- relative viability (Veliparib + Vorinostat; first compound 0.06325 µM): 0.498
- relative viability (Veliparib + Vorinostat; first compound 0.2 µM): 0.388
- relative viability (Veliparib + Vorinostat; first compound 0.6325 µM): 0.44
- relative viability (Veliparib + Vorinostat; first compound 2 µM): 0.459

Cell Line: NCI-H2170
- relative viability ([1]; first compound 0.08 µM): 0.938
- relative viability ([1]; first compound 0.253 µM): 1.19
- relative viability ([1]; first compound 0.8 µM): 1.17
- relative viability ([1]; first compound 2.53 µM): 1.26
- relative viability ([1]; first compound 8 µM): 1.12
- relative viability ([2]; first compound 0.08 µM): 0.374
- relative viability ([2]; first compound 0.253 µM): 0.374
- relative viability ([2]; first compound 0.8 µM): 0.412
- relative viability ([2]; first compound 2.53 µM): 0.361
- relative viability ([2]; first compound 8 µM): 0.367
- relative viability (Veliparib + Vorinostat; first compound 0.02 µM): 0.795
- relative viability (Veliparib + Vorinostat; first compound 0.06325 µM): 0.777
- relative viability (Veliparib + Vorinostat; first compound 0.2 µM): 0.839
- relative viability (Veliparib + Vorinostat; first compound 0.6325 µM): 0.786
- relative viability (Veliparib + Vorinostat; first compound 2 µM): 0.79

Cell Line: NCI-H2342
- relative viability ([2]; first compound 0.08 µM): 0.467
- relative viability ([2]; first compound 0.253 µM): 0.586
- relative viability ([2]; first compound 0.8 µM): 0.52
- relative viability ([2]; first compound 2.53 µM): 0.538
- relative viability ([2]; first compound 8 µM): 0.559
- relative viability (Veliparib + Vorinostat; first compound 0.02 µM): 0.787
- relative viability (Veliparib + Vorinostat; first compound 0.06325 µM): 0.718
- relative viability (Veliparib + Vorinostat; first compound 0.2 µM): 0.732
- relative viability (Veliparib + Vorinostat; first compound 0.6325 µM): 0.714
- relative viability (Veliparib + Vorinostat; first compound 2 µM): 0.703

Cell Line: SK-MES-1
- relative viability ([1]; first compound 0.08 µM): 1
- relative viability ([1]; first compound 0.253 µM): 0.983
- relative viability ([1]; first compound 0.8 µM): 0.984
- relative viability ([1]; first compound 2.53 µM): 1
- relative viability ([1]; first compound 8 µM): 0.885
- relative viability ([2]; first compound 0.08 µM): 0.357
- relative viability ([2]; first compound 0.253 µM): 0.324
- relative viability ([2]; first compound 0.8 µM): 0.299
- relative viability ([2]; first compound 2.53 µM): 0.287
- relative viability ([2]; first compound 8 µM): 0.31
- relative viability (Veliparib + Vorinostat; first compound 0.02 µM): 1.19
- relative viability (Veliparib + Vorinostat; first compound 0.06325 µM): 1.08
- relative viability (Veliparib + Vorinostat; first compound 0.2 µM): 1.09
- relative viability (Veliparib + Vorinostat; first compound 0.6325 µM): 1.04
- relative viability (Veliparib + Vorinostat; first compound 2 µM): 1.07

Cell Line: SW 900
- relative viability ([2]; first compound 0.08 µM): 0.491
- relative viability ([2]; first compound 0.253 µM): 0.564
- relative viability ([2]; first compound 0.8 µM): 0.565
- relative viability ([2]; first compound 2.53 µM): 0.525
- relative viability ([2]; first compound 8 µM): 0.51
- relative viability (Veliparib + Vorinostat; first compound 0.06325 µM): 0.452
- relative viability (Veliparib + Vorinostat; first compound 0.2 µM): 0.472
- relative viability (Veliparib + Vorinostat; first compound 0.6325 µM): 0.606
- relative viability (Veliparib + Vorinostat; first compound 2 µM): 0.463
